Test: xn = mol fraction of the nth substance listed
Settings: 101 kPa, Liquid; for viscosity: Concentric cylinders viscometry; for mass density: Vibrating tube method

CCOC(=O)C(C)O (stereo not drawn) [DL-ethyl lactate] + OCCCO
Settings	mass density [kg/m3]	viscosity [mPa·s]
288.15 K, x1 = 0.1001	1056.19	51.26
288.15 K, x1 = 0.2001	1055.73	38.55
288.15 K, x1 = 0.3	1054.58	28.06
288.15 K, x1 = 0.3998	1053.41	20.15
288.15 K, x1 = 0.4996	1051.81	14.63
288.15 K, x1 = 0.5997	1049.85	10.55
288.15 K, x1 = 0.7	1047.67	7.714
288.15 K, x1 = 0.8	1045.16	5.639
288.15 K, x1 = 0.8997	1042.56	4.327
288.15 K, x1 = 1	1039.28	3.207
293.15 K, x1 = 0.1001	1052.84	40.04
293.15 K, x1 = 0.2001	1052.12	30.14
293.15 K, x1 = 0.3	1050.74	22.16
293.15 K, x1 = 0.3998	1049.3	16.06
293.15 K, x1 = 0.4996	1047.46	11.78
293.15 K, x1 = 0.5997	1045.28	8.579
293.15 K, x1 = 0.7	1042.88	6.35
293.15 K, x1 = 0.8	1040.14	4.704
293.15 K, x1 = 0.8997	1037.34	3.583
293.15 K, x1 = 1	1033.84	2.75
298.15 K, x1 = 0.1001	1049.47	31.54
298.15 K, x1 = 0.2001	1048.48	23.97
298.15 K, x1 = 0.3	1046.87	17.76
298.15 K, x1 = 0.3998	1045.13	12.92
298.15 K, x1 = 0.4996	1043.1	9.585
298.15 K, x1 = 0.5997	1040.69	7.071
298.15 K, x1 = 0.7	1038.07	5.296
298.15 K, x1 = 0.8	1035.11	3.974
298.15 K, x1 = 0.8997	1032.1	3.071
298.15 K, x1 = 1	1028.39	2.39
303.15 K, x1 = 0.1001	1046.08	25.3
303.15 K, x1 = 0.2001	1044.83	19.39
303.15 K, x1 = 0.3	1042.98	14.35
303.15 K, x1 = 0.3998	1041.02	10.58
303.15 K, x1 = 0.4996	1038.71	7.942
303.15 K, x1 = 0.5997	1036.07	5.912
303.15 K, x1 = 0.7	1033.23	4.482
303.15 K, x1 = 0.8	1030.05	3.405
303.15 K, x1 = 0.8997	1026.83	2.661
303.15 K, x1 = 1	1022.92	2.097
308.15 K, x1 = 0.1001	1042.68	20.61
308.15 K, x1 = 0.2001	1041.16	15.81
308.15 K, x1 = 0.3	1039.07	11.84
308.15 K, x1 = 0.3998	1036.66	8.791
308.15 K, x1 = 0.4996	1034.3	6.65
308.15 K, x1 = 0.5997	1031.42	5.009
308.15 K, x1 = 0.7	1028.37	3.833
308.15 K, x1 = 0.8	1024.96	2.944
308.15 K, x1 = 0.8997	1021.54	2.329
308.15 K, x1 = 1	1017.42	1.858
313.15 K, x1 = 0.1001	1039.25	16.9
313.15 K, x1 = 0.2001	1037.46	13.04
313.15 K, x1 = 0.3	1035.13	9.826
313.15 K, x1 = 0.3998	1032.52	7.365
313.15 K, x1 = 0.4996	1029.86	5.624
313.15 K, x1 = 0.5997	1026.75	4.28
313.15 K, x1 = 0.7	1023.48	3.308
313.15 K, x1 = 0.8	1019.84	2.57
313.15 K, x1 = 0.8997	1016.22	2.056
313.15 K, x1 = 1	1011.9	1.658
318.15 K, x1 = 0.1001	1035.8	14
318.15 K, x1 = 0.2001	1033.74	10.86
318.15 K, x1 = 0.3	1031.16	8.236
318.15 K, x1 = 0.3998	1028.33	6.232
318.15 K, x1 = 0.4996	1025.39	4.805
318.15 K, x1 = 0.5997	1022.05	3.691
318.15 K, x1 = 0.7	1018.55	2.883
318.15 K, x1 = 0.8	1014.69	2.263
318.15 K, x1 = 0.8997	1010.87	1.83
318.15 K, x1 = 1	1006.36	1.491
323.15 K, x1 = 0.1001	1032.33	11.78
323.15 K, x1 = 0.2001	1030	9.189
323.15 K, x1 = 0.3	1027.16	7.027
323.15 K, x1 = 0.3998	1024.09	5.361
323.15 K, x1 = 0.4996	1020.89	4.174
323.15 K, x1 = 0.5997	1017.32	3.235
323.15 K, x1 = 0.7	1013.6	2.551
323.15 K, x1 = 0.8	1009.51	2.023
323.15 K, x1 = 0.8997	1005.5	1.648
323.15 K, x1 = 1	1000.79	1.349
